# In patent US8008283B2, “Methods and compositions for the treatment of neuropsychiatric disorders” (Neurotherapeutics Pharma, Inc., priority 2005, dated 2011):
# Legend:
# rats [1] = conditions: Granados-Soto et al. Pain 2005; cited from earlier work
# human skin = conditions: Willis et al.; cited from earlier work
# rats [2] = test: contextual fear conditioning in rats (freezing); format: in vivo, rat; conditions: I.V. in DMSO, furosemide 100 mg/kg, bumetanide 50 mg/kg; compared with vehicle alone; FIG. 5
# Description: Contextual fear conditioning involves pairing an aversive event, in this case moderate foot shock, with a distinctive environment. The strength of the fear memory is assessed using freezing, a species-typical defensive reaction in rats, marked by complete immobility, except for breathing. […] However, if they are allowed to explore the distinctive environment sometime before the immediate shock, they show intense anxiety and fear when placed back into the same environment. We can take advantage of this fact and, by procedurally dividing contextual fear conditioning into two phases, we can separately study effects of treatments on memory for the context (specifically a hippocampus based process) from learning the association between context and shock or experiencing the aversiveness of the shock (which depend upon emotional response circuitry including amygdala). […] The experiment employed 24 rats. […] Each rat was again placed into the same environment for 8 min during which time freezing was measured, as an index of Pavlovian conditioned fear. […] Measurement of freezing was accomplished through an overhead video camera connected to the microcomputer and was automatically scored using a specialty piece of software, FreezeFrame (OER Inc., Reston, Va.). Total freezing time was analyzed in a one-way analysis of variance (ANOVA) test, with drug dose as the […] factor.
# rats [3] = test: fear potentiated startle (FPS) test in rats; format: in vivo, rat
# Description: Twenty-four rats received a 30 min period of habituation to the FPS apparatus. Twenty-four hours later, baseline startle amplitudes were collected. The rats were then divided into three matched groups based on baseline startle amplitudes. […] Groups 1 and 2 therefore consisted of 8 rats each, with Group 3 consisting of […]. Following baseline startle amplitude collection, 20 light/shock pairings were delivered on two sessions over two consecutive days (i.e., 10 light/shock pairings per day). […] Immediately following injections, startle amplitudes were assessed during startle alone trials and startle plus fear (light followed by startle) trials. Fear potentiated startle (light+startle amplitudes minus startle alone amplitudes) was compared between the treatment groups.
# Animals were trained and tested in four identical stabilimeter devices (Med-Associates). Briefly, each rat was placed in a small Plexiglas cylinder. The floor of each stabilimeter consisted of four 6-mm-diameter stainless steel bars spaced 18 mm apart through which shock can be delivered. Cylinder movements result in displacement of an accelerometer where the resultant voltage is proportional to the velocity of the cage displacement. Startle amplitude is defined as the maximum accelerometer voltage that occurs during the first 0.25 sec after the startle stimulus is delivered. […] Each stabilimeter was enclosed in a ventilated, light-, and sound-attenuating box. All sound level measurements were made with a Precision Sound Level Meter. The noise of a ventilating fan attached to a sidewall of each wooden box produced an overall background noise level of 64 dB. The startle stimulus was a 50 ms burst of white noise (5 ms rise-decay time) generated by a white noise generator. The visual conditioned stimulus employed was illumination of a light bulb adjacent to the white noise source. The unconditioned stimulus was a 0.6 mA foot shock with duration of 0.5 sec, generated by four constant-current shockers located outside the chamber. The presentation and sequencing of all stimuli were under the control of the microcomputer.
# FPS procedures consisted of 5 days of testing; during days 1 and 2 baseline startle responses were collected, days 3 and 4 light/shock pairings were delivered, day 5 testing for fear potentiated startle was conducted.
# Matching: On the first two days all rats were placed in the Plexiglas cylinders and 3 min later presented with 30 startle stimuli at a 30 sec interstimulus interval.
# Training: On the following 2 days, rats were placed in the Plexiglas cylinders. […] The shock was delivered during the last 0.5 sec of the 3.7 sec CSs at an average intertrial interval of 4 min (range, 3-5 min).
# These initial startle stimuli were used to again habituate the rats to the acoustic startle stimuli. Thirty seconds after the last of these stimuli, each animal received 60 startle stimuli with half of the stimuli presented alone (startle alone trials) and the other half presented 3.2 sec after the onset of the 3.7 sec CS (CS-startle trials). All startle stimuli are presented at a mean 30 sec interstimulus interval, randomly varying between 20 and 40 sec.
# Measures: The treatment groups were compared on the difference in startle amplitude between CS-startle and startle-alone trials (fear potentiation).
# The therapeutic efficacy of several bumetanide analogs in alleviating anxiety was examined using the fear potentiated startle (FPS) test in rats as described above.
SMILES,formalin-induced nociception (rats [1]),"sensory nerve activation, itch and flare responses induced by histamine (human skin)",freezing (rats [2]),"difference score one week after treatment (rats [3]; compared with vehicle alone, FIG. 10)",statistical difference from vehicle in difference score one week after treatment (rats [3]; error bars large for vehicle-treated animals),"difference score (startle alone - fear potentiated startle) on the test day (rats [3]; i.v. in DMSO, furosemide 100 mg/kg, bumetanide 70 mg/kg, compared with vehicle alone, FIG. 8)"
NS(=O)(=O)c1cc(C(=O)O)cc(N2CCCC2)c1Oc1ccccc1 [piretanide],reduced,,,,,
CCCc1c2oc(C(=O)O)cc(=O)c2cc2c(=O)cc(C(=O)O)n(CC)c12 [nedocromil sodium],,inhibit sensory nerve activation to reduce the itch and flare responses,,,,
CCCCNc1cc(C(=O)O)cc(S(N)(=O)=O)c1Oc1ccccc1 [bumetanide],reduced,inhibit sensory nerve activation to reduce the itch and flare responses,significantly less freezing,higher difference score,does not imply any statistically significant difference,statistically significantly lower difference score
